Values joined by “and” are separate entries in the source; they are usually repeats but may differ in a detail not shown here. Equal entries are not always repeated.
Tests used:
SNU-354 cells [1] = experiment: Flow cytometry, sub G1 ratio change (Experimental Example 3); type: cell-based, human; conditions: 10 μM, 24 hours, vehicle = 1.0
Procedure: SNU-354 cells were seeded in a 90 mm dish, to which vehicle and the compounds of Examples 2˜6 were treated at the concentration of 10 μM each for 24 hours. The cells were collected and washed with cold PBS, followed by reaction in 500 μl of cold 70% ethanol at 4° C. for overnight to fix the cells. The cells were washed with 500 μl of PBS three times, followed by reaction with 500 μl of PBS containing 50 μg/mL propidium iodide (P1) and 50 μl of 1 mg/mL RNAse A at room temperature for 30 minutes in the darkness. Fluorescence of the P1 stained cell was measured by using FACS caliber flow cytometer and cell quest program (Becton Dickinson Immunocytometry Systems, CA, USA). Sub G1 ratio changes of SNU-354 cells induced by the compounds were measured by FACS analysis.

[2] = system: caspase-3 activity in SNU-354 cells; experiment: Measurement of caspase-3 activity (Experimental Example 4); type: cell-based, human; parameters: unit not given here
Procedure: SNU-354 cells treated with the compounds of Example 1˜Example 6 were lysed with lysis buffer (0.5% triton X-100, 20 mM Tris-HCl (pH 7.5), 2 mM magnesium chloride, 1 mM DTT, 1 mM EGTA, 50 mM β-glycerophosphate, 25 mM sodium fluoride, 1 mM Na3VO4, 2 μg/mL leupeptin, 2 μg/mL pepstatin A, 100 μg/mL phenylmethylsulfonyl fluoride, 1 μg/mL antipain). The protease analysis buffer necessary for the reaction (20 mM HEPES (pH 7.5), 10% glycerol, 2 mM DTT) was mixed with 20 μM Ac-DEVD-AMC (BD Biosciences, CA, USA) and cell lysates, followed by reaction at 37° C. for 1 hour. Upon completion of the reaction, caspase-3 activity was measured at 380 nm of excitation and 460 nm of emission with spectrofluorometer (TECAN, Switzerland) and the results are shown in FIG. 25 and Table 12.

SNU-354 cells [3] = experiment: MTT assay, cell viability; type: cell-based; conditions: Homo sapiens, SNU-354, read-out: Cell viability (%)
Procedure: Cell viability was measured by MTT assay. SNU-354 cells in the log phase of cell growth curve were distributed in a 24-well plate at the density of 2×10^4 cells/well. […] After allowing enough time for reaction, MTT reagent (MTT dissolved in PBS at the concentration of 5 mg/mL) (Sigma-Aldrich, USA) was added to each well, followed by reaction at 37° C. for 3 hours. Then, the supernatant was eliminated and the precipitated formazan crystals were dissolved in dimethyl sulfoxide, followed by measurement of absorbance with ELISA plate reader.

SNU-354 cells [4] = experiment: 3H-thymidine incorporation assay; type: cell-based, human; conditions: 18˜24 hours
Procedure: SNU-354 cells were distributed in a 6-well plate at the density of 5×10^4 cells/well, followed by culture in FBS-free medium for 24 hours. 24 hours later, the medium was replaced with the fresh one supplemented with FBS, the compounds of Examples 1 and 2 at different concentrations and 1 μCi/mL [^3H]dT (GE Healthcare, UK). 18˜24 hours later, the cells were washed with cold PBS and then fixed with cold 5% trichloroacetic acid. DNA was lysed in […] sodium hydroxide at 37° C. for 1 hour. Then, [^3H]dT incorporated during intracellular DNA synthesis was measured by LSC (liquid scintillation counting). Intracellular DNA synthesis measured above was used as index for the evaluation of cell viability.

Cdk7/cyclin H/MAT1 = biological target: T1, Cdk7/cyclin H/MAT1 (Homo sapiens, UniProt P50613); experiment: In vitro kinase assay of Cdk7, RNA Pol II-CTD-GST substrate; type: biochemical; conditions: 0 nM = 100
T1 construct: purchased Upstate
T1 sequence (P50613 whole entry): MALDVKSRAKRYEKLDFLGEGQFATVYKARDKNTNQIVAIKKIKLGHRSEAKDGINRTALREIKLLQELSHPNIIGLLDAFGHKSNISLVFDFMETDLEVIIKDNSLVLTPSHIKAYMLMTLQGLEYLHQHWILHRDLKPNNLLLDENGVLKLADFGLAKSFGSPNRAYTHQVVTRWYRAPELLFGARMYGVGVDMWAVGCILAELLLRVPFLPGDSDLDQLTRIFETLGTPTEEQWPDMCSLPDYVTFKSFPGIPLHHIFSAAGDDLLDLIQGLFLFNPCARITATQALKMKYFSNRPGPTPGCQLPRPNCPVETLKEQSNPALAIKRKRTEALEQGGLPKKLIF
T1 sequence (P51946 whole entry partner): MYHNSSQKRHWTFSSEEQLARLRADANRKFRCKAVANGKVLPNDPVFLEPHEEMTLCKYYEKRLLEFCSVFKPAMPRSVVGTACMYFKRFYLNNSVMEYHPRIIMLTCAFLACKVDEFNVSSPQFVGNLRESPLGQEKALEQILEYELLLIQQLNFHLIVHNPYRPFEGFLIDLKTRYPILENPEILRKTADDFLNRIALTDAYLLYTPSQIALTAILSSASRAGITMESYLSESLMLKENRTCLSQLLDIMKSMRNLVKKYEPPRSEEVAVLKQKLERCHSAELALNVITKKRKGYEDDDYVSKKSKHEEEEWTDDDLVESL
T1 sequence (P51948 whole entry partner): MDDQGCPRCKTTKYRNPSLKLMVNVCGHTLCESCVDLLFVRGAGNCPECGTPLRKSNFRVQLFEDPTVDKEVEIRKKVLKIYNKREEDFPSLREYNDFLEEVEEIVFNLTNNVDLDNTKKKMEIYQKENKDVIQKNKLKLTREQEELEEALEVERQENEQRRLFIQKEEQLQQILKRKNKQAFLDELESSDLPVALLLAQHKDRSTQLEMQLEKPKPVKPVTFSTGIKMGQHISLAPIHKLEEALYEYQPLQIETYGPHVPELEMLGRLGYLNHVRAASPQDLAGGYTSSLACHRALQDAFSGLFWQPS
Procedure: (§1) To kinase assay buffer were added RNA Pol II-CTD-GST protein (Jena Bioscience, Germany) as a substrate, Cdk9/cyclin T1 or Cdk7/cyclin H/MAT1 recombinant protein (Upstate) as an enzyme, 2.5 μCi [γ-32P]ATP, and 100 μM MgAc/ATP. The total reaction volume was adjusted to 50 μl. Kinase assay reaction was induced at 30° C. for 20 minutes. Upon completion of the reaction, electrophoresis was performed on 8% SDS-polyacrylamide gel. The activities of Cdk7 and Cdk9 over the concentrations of the compounds of Example 1 and Example 2 were confirmed by autoradiography and the results are shown in FIG. 5˜FIG. 8 and Table 3.
(§2) The intensity of bands was analyzed by densitometry (GS-800, Bio-Rad).

Cdk9/cyclin T1 = biological target: T2, Cdk9/cyclin T1 (Homo sapiens, UniProt P50750); experiment: In vitro kinase assay of Cdk9, RNA Pol II-CTD-GST substrate; type: biochemical; conditions: 0 nM = 100
T2 construct: purchased Upstate
T2 sequence (P50750 whole entry): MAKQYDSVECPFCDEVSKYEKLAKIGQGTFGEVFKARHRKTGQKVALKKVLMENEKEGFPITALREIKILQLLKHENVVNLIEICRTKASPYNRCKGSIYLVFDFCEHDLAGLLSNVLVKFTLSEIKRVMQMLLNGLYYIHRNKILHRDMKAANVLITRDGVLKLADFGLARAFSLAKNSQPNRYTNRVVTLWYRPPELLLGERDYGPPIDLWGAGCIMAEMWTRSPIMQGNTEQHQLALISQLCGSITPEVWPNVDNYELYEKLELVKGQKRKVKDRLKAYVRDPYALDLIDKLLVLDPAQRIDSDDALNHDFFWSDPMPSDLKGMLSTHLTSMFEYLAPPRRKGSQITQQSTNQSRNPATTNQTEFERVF
T2 sequence (O60563 whole entry partner): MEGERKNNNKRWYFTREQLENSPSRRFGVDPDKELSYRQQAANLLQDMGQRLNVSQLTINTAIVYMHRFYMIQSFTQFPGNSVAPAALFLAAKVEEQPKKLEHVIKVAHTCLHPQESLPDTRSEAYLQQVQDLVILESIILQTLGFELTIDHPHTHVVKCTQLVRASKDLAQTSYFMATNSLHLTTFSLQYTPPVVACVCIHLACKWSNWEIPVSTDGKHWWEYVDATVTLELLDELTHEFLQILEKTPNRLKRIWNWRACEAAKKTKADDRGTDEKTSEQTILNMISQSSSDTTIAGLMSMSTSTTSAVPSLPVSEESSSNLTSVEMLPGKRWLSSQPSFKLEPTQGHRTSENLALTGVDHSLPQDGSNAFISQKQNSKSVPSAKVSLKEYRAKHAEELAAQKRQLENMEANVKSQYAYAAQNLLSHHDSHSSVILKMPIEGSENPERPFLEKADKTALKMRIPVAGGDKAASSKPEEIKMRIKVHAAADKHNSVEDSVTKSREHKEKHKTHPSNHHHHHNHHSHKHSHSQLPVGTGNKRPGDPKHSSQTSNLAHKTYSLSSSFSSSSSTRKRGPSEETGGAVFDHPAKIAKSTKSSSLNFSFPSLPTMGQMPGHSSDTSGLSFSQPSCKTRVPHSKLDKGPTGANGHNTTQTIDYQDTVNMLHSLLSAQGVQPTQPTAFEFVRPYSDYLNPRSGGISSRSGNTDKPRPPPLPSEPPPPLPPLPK
Procedure: as §1, §2

Cdk7 = experiment: Western blotting of Cdk7 activity (phospho RNA Pol II Ser 5); type: cell-based, human; conditions: 0 nM = 100
Procedure: (§3) After treating the compound of Example 2 to SNU-354 cells, cell pellet was lysed with lysis buffer (0.5% triton X-100, 20 mM Tris-HCl (pH 7.5), 2 mM magnesium chloride, 1 mM DTT, 1 mM EGTA, 50 mM β-glycerophosphate, 25 mM sodium fluoride, 1 mM Na3VO4, 2 μg/mL leupeptin, 2 μg/mL pepstatin A, 100 μg/mL phenylmethylsulfonyl fluoride, and 1 μg/mL antipain) at 4° C. for 1 hour, followed by quantification of protein. A proper amount of protein was electrophoresed on SDS-PAGE gel and then transferred onto polyvinylidene difluoride membrane (Millipore Co., Bedford, Mass.). The membrane was reacted in inhibiting solution (PBS, 5% skim milk, 0.1% tween-20) at room temperature for 1˜2 hours. The membrane was reacted with the primary antibody (goat anti-phospho-Rb, rabbit anti-nucleolin) diluted in the inhibiting solution (1:1000). Then, the membrane was washed with PBST, followed by reaction with the proper secondary antibody (horseradish peroxidase (HRP) conjugated) at room temperature for 1 hour.
(§4) Experiment was performed by the same manner as described in step 2 of Experimental Example 1 except that rabbit anti-phospho RNA Pol II (Ser 5) and rabbit anti-phospho RNA Pol II (Ser 2) (from Bethyl, TX, USA) were used as primary antibodies. The results are shown FIG. 9˜FIG. 12, and Table 4 and Table 5.

Cdk9 = experiment: Western blotting of Cdk9 activity (phospho RNA Pol II Ser 2); type: cell-based, human; conditions: 0 nM = 100
Procedure: as §3, §4

CCC(=O)OC[C@@H]1O[C@H](n2c(Br)c(C(N)=O)c3c(N)ncnc32)[C@@H](O)[C@@H]1O [Example 6, ((2S,3S,4S,5S)-5-(4-amino-6-bromo-5-carbamoyl-7H-pyrrolo[2,3-d]pyrimidin-7-yl)-3,4-dihydroxytetrahydrofuran-2-yl)methyl propionate]
sub G1 ratio change (SNU-354 cells [1]): 5.9 | Caspase-3 activity ([2]; 5 μM): 10.7 | Caspase-3 activity ([2]; 10 μM): 11.7

Cn1cnc2c(NCc3ccccc3)nc(NCCO)nc21 [Olomoucine, olomoucine, reference compound]
viability at 0.5 µM (SNU-354 cells [3]): 98.9% | viability at 1 µM (SNU-354 cells [3]): 99.9% | viability at 2 µM (SNU-354 cells [3]): 99.9% | viability at 5 µM (SNU-354 cells [3]): 98.5% | viability at 10 µM (SNU-354 cells [3]): 101% | viability at 50 µM (SNU-354 cells [3]): 96% | ^3H-thymidine incorporation (%) (SNU-354 cells [4]; 5.0 μM): 99.7% | ^3H-thymidine incorporation (%) (SNU-354 cells [4]; 10.0 μM): 96.3% | ^3H-thymidine incorporation (%) (SNU-354 cells [4]; 50.0 μM): 77.2%

CC(C)(C)C(=O)OC[C@@H]1O[C@H](n2cnc(N)c3c(C(N)=O)c(Br)nc2-3)[C@H](O)[C@H]1O [Example 3, ((2S,3R,4R,5S)-5-(4-amino-6-bromo-5-carbamoyl-1H-pyrrolo[2,3-d]pyrimidin-1-yl)-3,4-dihydroxy-tetrahydrofuran-2-yl)methyl pivalate]
sub G1 ratio change (SNU-354 cells [1]): 5.7 | Caspase-3 activity ([2]; 5 μM): 8.2 | Caspase-3 activity ([2]; 10 μM): 7.8

CC[C@H](CO)Nc1nc(NCc2ccccc2)c2ncn(C(C)C)c2n1 [Roscosvitine, roscosvitine, reference compound]
Cdk7 activity (Cdk7/cyclin H/MAT1; 10 nM): 92.0% | Cdk7 activity (Cdk7/cyclin H/MAT1; 100 nM): 43.4% | Cdk7 activity (Cdk7/cyclin H/MAT1; 1000 nM): 17.4% | Cdk9 activity (Cdk9/cyclin T1; 10 nM): 55.6% | Cdk9 activity (Cdk9/cyclin T1; 100 nM): 44.6% | Cdk9 activity (Cdk9/cyclin T1; 1000 nM): 42.2% | Cdk7 activity (Cdk7; 0.1 nM): 96.0% | Cdk7 activity (Cdk7; 0.5 nM): 73.1% | Cdk7 activity (Cdk7; 1 nM): 51.5% | Cdk7 activity (Cdk7; 5 nM): 51.6% | Cdk7 activity (Cdk7; 10 nM): 49.9% | Cdk7 activity (Cdk7; 50 nM): 4.0% | Cdk9 activity (Cdk9; 0.1 nM): 69.3% | Cdk9 activity (Cdk9; 0.5 nM): 48.5% | Cdk9 activity (Cdk9; 1 nM): 38.1% | Cdk9 activity (Cdk9; 5 nM): 35.7% | Cdk9 activity (Cdk9; 10 nM): 34.6% | Cdk9 activity (Cdk9; 50 nM): 2.2% | ^3H-thymidine incorporation (%) (SNU-354 cells [4]; 5.0 μM): 98.2% | ^3H-thymidine incorporation (%) (SNU-354 cells [4]; 10.0 μM): 91.0% | ^3H-thymidine incorporation (%) (SNU-354 cells [4]; 50.0 μM): 47.2%

NC(=O)c1c(Br)n([C@H]2O[C@@H](COC(=O)c3ccccc3)[C@@H](O)[C@@H]2O)c2ncnc(N)c12 [Example 5, ((2S,3S,4S,5S)-5-(4-amino-6-bromo-5-carbamoyl-7H-pyrrolo[2,3-d]pyrimidin-7-yl)-3,4-dihydroxytetrahydrofuran-2-yl)methyl benzoate]
sub G1 ratio change (SNU-354 cells [1]): 5.5 and 6.0 | Caspase-3 activity ([2]; 5 μM): 9.0 | Caspase-3 activity ([2]; 10 μM): 10.3

CC(=O)O[C@H]1[C@H](OC(C)=O)[C@@H](n2cnc(N)c3c(C(N)=O)c(Br)nc2-3)O[C@H]1COC(=O)C(C)C [Example 4, (2S,3S,4R,5S)-2-(4-amino-6-bromo-5-carbamoyl-1H-pyrrolo[2,3-d]pyrimidin-1-yl)-5-(isobutyryloxymethyl)tetrahydrofuran-3,4-diyl diacetate]
sub G1 ratio change (SNU-354 cells [1]): 5.5 | Caspase-3 activity ([2]; 5 μM): 5.1 | Caspase-3 activity ([2]; 10 μM): 7.0
